# Data as given in article PMC6133773 (The Journal of organic chemistry, 2018).
# Experiments:
# IspD [1] = biological target: T1, IspD (Escherichia coli, UniProt Q46893); assay: MESG coupled pyrophosphate assay, inhibition of MEP turnover; type: biochemical
# T1 sequence (Q46893 2-236): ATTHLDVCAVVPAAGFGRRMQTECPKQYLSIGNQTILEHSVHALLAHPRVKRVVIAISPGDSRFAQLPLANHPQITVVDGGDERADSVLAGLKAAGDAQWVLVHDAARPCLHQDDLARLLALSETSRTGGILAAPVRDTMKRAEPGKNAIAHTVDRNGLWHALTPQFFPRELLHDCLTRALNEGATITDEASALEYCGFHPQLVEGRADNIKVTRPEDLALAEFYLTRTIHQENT
# IspD [2] = biological target: T2, IspD (Plasmodium falciparum, UniProt Q8I273); assay: as above; type: biochemical
# T2 sequence (Q8I273 60-734): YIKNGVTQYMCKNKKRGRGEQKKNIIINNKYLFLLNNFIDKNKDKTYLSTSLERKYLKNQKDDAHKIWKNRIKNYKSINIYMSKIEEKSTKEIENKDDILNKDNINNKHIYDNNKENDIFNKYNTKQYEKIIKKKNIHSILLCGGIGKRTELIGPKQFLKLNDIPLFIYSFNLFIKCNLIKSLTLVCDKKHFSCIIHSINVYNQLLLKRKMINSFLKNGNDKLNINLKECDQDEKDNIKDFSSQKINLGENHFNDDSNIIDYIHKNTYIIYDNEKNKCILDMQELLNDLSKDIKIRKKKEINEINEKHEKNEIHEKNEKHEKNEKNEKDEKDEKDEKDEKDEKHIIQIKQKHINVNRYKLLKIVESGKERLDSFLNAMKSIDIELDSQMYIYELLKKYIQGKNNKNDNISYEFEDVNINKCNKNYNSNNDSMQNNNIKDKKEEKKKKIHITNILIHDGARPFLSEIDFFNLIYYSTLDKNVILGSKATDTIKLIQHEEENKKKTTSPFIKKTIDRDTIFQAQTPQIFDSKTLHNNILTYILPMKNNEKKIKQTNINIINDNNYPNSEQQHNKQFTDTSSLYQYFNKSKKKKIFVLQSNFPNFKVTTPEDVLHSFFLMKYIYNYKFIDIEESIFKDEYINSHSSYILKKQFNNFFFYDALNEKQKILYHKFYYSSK
structure (smiles),measurement,setting,value
"C[C@](O)(CO)[C@H](O)C[C@@H](F)P(=O)(O)O [5b, (5S)-D-methylerythritol monofluoromethyl phosphonate]",IC50,IspD [1],700 ± 100 µM
same,IC50,IspD [2],1300 ± 700 µM
